Data: patent US12331040B2 (Karyopharm Therapeutics Inc., priority 2013, dated 2025)
Like-named read-outs stand apart in the source and are kept apart here.

How the values were obtained:
Format in all cases: cell-based
HCT-15 cells = assay: MTT cell proliferation assay; settings: Homo sapiens
Protocol: (§1) The MTT cell proliferation assay was used to study the cytotoxic properties of the compounds. The assay was performed according to the method described by Roche Molecular Biochemicals, with minor modifications. The assay is based on the cleavage of the tetrazolium salt, MTT, in the presence of an electron-coupling reagent. The water-insoluble formazan salt produced must be solubilized in an additional step. Cells grown in a 96-well tissue culture plate were incubated with the MTT solution for approximately 4 hours. After this incubation period, a water-insoluble formazan dye formed. After solubilization, the formazan dye was quantitated using a scanning multi-well spectrophotometer (ELISA reader). […] The cells were seeded at 5,000-10,000 cells in each well of 96-well plate in 100 μL of fresh culture medium and were allowed to attach overnight. The stock solutions of the compounds were diluted in 100 μL cell culture medium to obtain eight concentrations of each test compound, ranging from 1 nM to 30 μM. […] All optical densities were measured at 490 nm using a Vmax Kinetic Microplate Reader (Molecular Devices). In most cases, the assay was performed in duplicate and the results were presented as a mean percent inhibition to the negative control±SE. The following formula was used to calculate the percent of inhibition: Inhibition (%)=(1−(ODo/OD))×100.
(§2) The M24 cell line is derived from human melanoma cells. The U2OS cell line is a human osteosarcoma cell line expressing wild type p53 and Rb, but lacking p16. The MM1S cell line is a multiple myeloma cell line; the parent cell line, MM.1, was established from peripheral blood of a multiple myeloma patient who had become resistant to steroid-based therapy. The RPMI8226 cell line is derived from human B lymphocyte cells. NHDF cells are normal human dermal fibroblast cells. The MRC-5 cell line is derived from normal lung tissue of a fetus. The PC3 cell line is a human prostate cancer cell line. The DU-145 cell line is a human prostate cancer cell line. The MDA-MB-231 cell line is a human breast adenocarcinoma cell line. The MDA-MB-468 cell line is a human breast carcinoma cell line. HL-60 cells are human promyelocytic leukemia cells. Hep G2 cells are human hepatocellular carcinoma cells. HEP 3B cells are human hepatocellular carcinoma cells. The DLD-1 cell line is a colorectal adenocarcinoma cell line. The HCT-15 cell line is a human colon carcinoma cell line. The Colo-205 cell line is derived from a human adenocarcinoma of the colon. The LoVo cell line is a human colon adenocarcinoma cell line.

NHDF cells = assay: MTT cell proliferation assay; settings: Homo sapiens
Protocol: as §1, §2

LoVo cells = assay: MTT cell proliferation assay; settings: Homo sapiens
Protocol: as §1, §2

MDA-MB-231 cells = assay: MTT cell proliferation assay; settings: Homo sapiens
Protocol: as §1, §2

MM1S cells = assay: MTT cell proliferation assay; settings: Homo sapiens, MM1.S
Protocol: as §1, §2

Colo-205 cells = assay: MTT cell proliferation assay; settings: Homo sapiens
Protocol: as §1, §2

U2OS cells = assay: MTT cell proliferation assay; settings: Homo sapiens
Protocol: as §1, §2

DLD-1 cells = assay: MTT cell proliferation assay; settings: Homo sapiens
Protocol: as §1, §2

MDA-MB-468 cells = assay: MTT cell proliferation assay; settings: Homo sapiens
Protocol: as §1, §2

M24 cells = assay: MTT cell proliferation assay; settings: Homo sapiens
Protocol: as §1, §2

[1] = MTT cell proliferation assay; settings: human, MRC-5 cells (normal fetal lung cell line); MRC-5 cells; 72-hour MTT
Protocol: as §1, §2

PC3 cells = assay: MTT cell proliferation assay; settings: Homo sapiens, PC-3
Protocol: as §1, §2

DU-145 cells = assay: MTT cell proliferation assay; settings: Homo sapiens
Protocol: as §1, §2

MRC-5 cells = assay: MTT cell proliferation assay; settings: Homo sapiens, MRC5; MRC-5 cell line
Protocol: as §1, §2

MS751 cells = assay: MTT cell proliferation assay; settings: Homo sapiens
Method in brief: (§3)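 Cytotoxicity was measured by MTT: OD490 of the solubilized formazan after roughly 4 h with MTT reagent, reported as mean percent inhibition relative to the negative control. Test compounds covered eight concentrations between 1 nM and 30 μM, added to 5,000–10,000 cells per well that had attached overnight.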

3T3 cells = assay: MTT cell proliferation assay; settings: Mus musculus
Method in brief: as §3

Z138 cells = assay: MTT cell proliferation assay; settings: Homo sapiens
Method in brief: as §3

[2] = HCT-15 cell line, read-out: MTT Assay IC50, HCT-15
[3] = HCT-15 cells, 72-hour MTT, read-out: HCT-15 MTT IC50
[4] = NHDF cell line, read-out: MTT Assay IC50, NHDF
[5] = NHDF cells, 72-hour MTT, read-out: NHDF MTT IC50
[6] = LoVo cell line, read-out: MTT Assay IC50, LoVo
[7] = LoVo cells, 72-hour MTT, read-out: LoVo MTT IC50
[8] = MDA-MB-231 cell line, read-out: MTT Assay IC50, MDA-MB-231
[9] = MDA-MB-231 cells, 72-hour MTT, read-out: MDA-MB-231 MTT IC50
[10] = MM1S cell line, read-out: MTT Assay IC50, MM1S
[11] = MM1S cells, 72-hour MTT, read-out: MM1S MTT IC50
[12] = Colo-205 cell line, read-out: MTT Assay IC50, Colo-205
[13] = Colo-205 cells, 72-hour MTT, read-out: Colo-205 MTT IC50
[14] = U2OS cell line, read-out: MTT Assay IC50, U2OS
[15] = U2OS cells, 72-hour MTT, read-out: U2OS MTT IC50
[16] = DLD-1 cell line, read-out: MTT Assay IC50, DLD-1
[17] = DLD-1 cells, 72-hour MTT, read-out: DLD-1 MTT IC50
[18] = MDA-MB-468 cell line, read-out: MTT Assay IC50, MDA-MB-468
[19] = MDA-MB-468 cells, 72-hour MTT, read-out: MDA-MB-468 MTT IC50
[20] = M24 cell line, read-out: MTT Assay IC50, M24
[21] = M24 cells, 72-hour MTT, read-out: M24 MTT IC50
[22] = PC3 cells, 72-hour MTT, read-out: PC3 MTT IC50
[23] = DU-145 cell line, read-out: MTT Assay IC50, DU-145
[24] = DU-145 cells, 72-hour MTT, read-out: DU-145 MTT IC50
[25] = MS751, 72 h, MS751 cells, 72-hour MTT, read-out: MS751 MTT IC50
[26] = MS751, MS751 cells, approximately 64-72 hours incubation, read-out: MTT Assay IC50 MS-751
[27] = NIH3T3, 72-hour MTT, read-out: 3T3 MTT IC50
[28] = NIH3T3, approximately 64-72 hours incubation, read-out: MTT Assay IC50 3T3
[29] = Z-138, 72 h, Z-138 cells, 72-hour MTT, read-out: Z-138 MTT IC50
[30] = Z-138, Z138 cells, approximately 64-72 hours incubation, read-out: MTT Assay IC50 Z-138

Compound | IC50 (HCT-15 cells; [2]) [nM] | IC50 (HCT-15 cells; [3]) [nM] | IC50 (NHDF cells; [4]) [nM] | IC50 (NHDF cells; [5]) [nM] | IC50 (LoVo cells; [7]) [nM] | IC50 (MDA-MB-231 cells; [9]) [nM] | IC50 (MM1S cells; [11]) [nM] | IC50 (Colo-205 cells; [13]) [nM] | IC50 (U2OS cells; [15]) [nM] | IC50 (DLD-1 cells; [17]) [nM] | IC50 (MDA-MB-468 cells; [19]) [nM] | IC50 at 72 h [1] [nM] | IC50 (PC3 cells; [22]) [nM] | IC50 (DU-145 cells; [24]) [nM] | IC50 (MS751 cells; [25]) [nM] | IC50 (MS751 cells; [26]) [nM] | IC50 (3T3 cells; [27]) [nM] | IC50 (3T3 cells; [28]) [nM] | IC50 (Z138 cells; [29]) [nM] | IC50 (Z138 cells; [30]) [nM] | further results
Nc1ccc(/C=C/C(=O)NCc2cc3cc(-c4ccc(S(=O)(=O)N5CCOCC5)cc4)cc(Cl)c3o2)cn1 [Compound 504, (E)-3-(6-Aminopyridin-3-yl)-N-((7-chloro-5-(4-(morpholinosulfonyl)phenyl)benzofuran-2-yl)methyl)acrylamide] | < 100 | 80 | < 100 | 60 | 180 | 220 | 290 | 80 | 40 | 110 | 1000 | 20 | 50 | 80 | 30 | < 100 | 350 | 100 to 5000 | 10 | < 100 | IC50 (LoVo cells; [6]): 100 to 5000 nM; IC50 (MDA-MB-231 cells; [8]): 100 to 5000 nM; IC50 (MM1S cells; [10]): 100 to 5000 nM; IC50 (Colo-205 cells; [12]): < 100 nM; IC50 (U2OS cells; [14]): < 100 nM; IC50 (DLD-1 cells; [16]): 100 to 5000 nM; IC50 (MDA-MB-468 cells; [18]): 100 to 5000 nM; IC50 (M24 cells; [20]): 100 to 5000 nM; IC50 (M24 cells; [21]): 50 nM; IC50 (PC3 cells; PC3 cell line, read-out: MTT Assay IC50, PC3): < 100 nM; IC50 (DU-145 cells; [23]): < 100 nM; IC50 (MRC-5 cells): < 100 nM
Nc1ccc(/C=C/C(=O)NCc2cc3cc(-c4ccc(C(=O)N5CCC(F)(F)CC5)cn4)cc(C(F)(F)F)c3o2)cn1 [Compound 585, (E)-3-(6-aminopyridin-3-yl)-N-((5-(5-(4,4-difluoropiperidine-1-carbonyl)pyridin-2-yl)-7-(trifluoromethyl)benzofuran-2-yl)methyl)acrylamide] | – | 270 | – | 5820 | 260 | 1120 | 90 | 170 | 60 | 940 | 200 | 130 | 140 | 4900 | 100 | < 100 | > 10000 | > 10000 | 20 | < 100 | –
Nc1ccc(/C=C/C(=O)NCc2cc3cc(-c4ccc(C(=O)N5CCOCC5)cc4)cc(C(F)(F)F)c3o2)cn1 [Compound 510, (E)-3-(6-aminopyridin-3-yl)-N-((5-(4-(morpholine-4-carbonyl)phenyl)-7-(trifluoromethyl)benzofuran-2-yl)methyl)acrylamide] | 100 to 5000 | 1270 | < 100 | 80 | 230 | 1410 | 90 | 160 | 8 | 950 | 30 | 50 | 20 | 1470 | 100 | 100 to 5000 | > 10000 | > 10000 | 100 | < 100 | IC50 (LoVo cells; [6]): 100 to 5000 nM; IC50 (MDA-MB-231 cells; [8]): 100 to 5000 nM; IC50 (MM1S cells; [10]): < 100 nM; IC50 (Colo-205 cells; [12]): 100 to 5000 nM; IC50 (U2OS cells; [14]): < 100 nM; IC50 (DLD-1 cells; [16]): 100 to 5000 nM; IC50 (MDA-MB-468 cells; [18]): < 100 nM; IC50 (M24 cells; [20]): 100 to 5000 nM; IC50 (M24 cells; [21]): 290 nM; IC50 (DU-145 cells; [23]): 100 to 5000 nM; IC50 (MRC-5 cells): < 100 nM
